Results taken from the NIST ThermoML archive (doi:10.1021/je600554h).
± gives the expanded uncertainty stated by the source.

Assay: xn = mol fraction of the nth substance listed
Conditions: Liquid; for viscosity: 100 kPa, Capillary tube (Ostwald / Ubbelohde) method; for mass density: 1000 kPa, Vibrating tube method

COC(C)(C)C [2-methoxy-2-methylpropane] + CCCCCCC
Conditions	mass density [kg/m3]	viscosity [mPa·s]
273.15 K, x1 = 0.1004	–	0.515 ± 0.009
273.15 K, x1 = 0.1042	705.19 ± 0.25	–
273.15 K, x1 = 0.1998	–	0.507 ± 0.009
273.15 K, x1 = 0.2146	710.4 ± 0.25	–
273.15 K, x1 = 0.3008	–	0.494 ± 0.009
273.15 K, x1 = 0.3024	714.67 ± 0.26	–
273.15 K, x1 = 0.3982	719.73 ± 0.27	–
273.15 K, x1 = 0.4024	–	0.485 ± 0.009
273.15 K, x1 = 0.4996	725.44 ± 0.28	–
273.15 K, x1 = 0.5007	–	0.476 ± 0.009
273.15 K, x1 = 0.5875	730.85 ± 0.3	–
273.15 K, x1 = 0.5989	–	0.468 ± 0.009
273.15 K, x1 = 0.6981	–	0.462 ± 0.009
273.15 K, x1 = 0.6985	738.08 ± 0.31	–
273.15 K, x1 = 0.7887	–	0.456 ± 0.009
273.15 K, x1 = 0.794	744.8 ± 0.33	–
273.15 K, x1 = 0.889	752 ± 0.33	–
273.15 K, x1 = 0.898	–	0.448 ± 0.009
278.15 K, x1 = 0.1004	–	0.484 ± 0.009
278.15 K, x1 = 0.1042	700.96 ± 0.25	–
278.15 K, x1 = 0.1998	–	0.474 ± 0.009
278.15 K, x1 = 0.2146	706.09 ± 0.25	–
278.15 K, x1 = 0.3008	–	0.464 ± 0.009
278.15 K, x1 = 0.3024	710.3 ± 0.26	–
278.15 K, x1 = 0.3982	715.27 ± 0.27	–
278.15 K, x1 = 0.4024	–	0.456 ± 0.009
278.15 K, x1 = 0.4996	720.9 ± 0.28	–
278.15 K, x1 = 0.5007	–	0.448 ± 0.009
278.15 K, x1 = 0.5875	726.22 ± 0.29	–
278.15 K, x1 = 0.5989	–	0.44 ± 0.009
278.15 K, x1 = 0.6981	–	0.433 ± 0.009
278.15 K, x1 = 0.6985	733.34 ± 0.3	–
278.15 K, x1 = 0.7887	–	0.427 ± 0.009
278.15 K, x1 = 0.794	739.96 ± 0.32	–
278.15 K, x1 = 0.889	747.05 ± 0.33	–
278.15 K, x1 = 0.898	–	0.421 ± 0.008
283.15 K, x1 = 0.1004	–	0.455 ± 0.009
283.15 K, x1 = 0.1042	696.72 ± 0.25	–
283.15 K, x1 = 0.1998	–	0.446 ± 0.009
283.15 K, x1 = 0.2146	701.76 ± 0.25	–
283.15 K, x1 = 0.3008	–	0.437 ± 0.009
283.15 K, x1 = 0.3024	705.9 ± 0.26	–
283.15 K, x1 = 0.3982	710.79 ± 0.27	–
283.15 K, x1 = 0.4024	–	0.429 ± 0.009
283.15 K, x1 = 0.4996	716.32 ± 0.28	–
283.15 K, x1 = 0.5007	–	0.422 ± 0.009
283.15 K, x1 = 0.5875	721.55 ± 0.29	–
283.15 K, x1 = 0.5989	–	0.414 ± 0.008
283.15 K, x1 = 0.6981	–	0.408 ± 0.008
283.15 K, x1 = 0.6985	728.56 ± 0.3	–
283.15 K, x1 = 0.7887	–	0.403 ± 0.008
283.15 K, x1 = 0.794	735.08 ± 0.32	–
283.15 K, x1 = 0.889	742.07 ± 0.33	–
283.15 K, x1 = 0.898	–	0.397 ± 0.008
288.15 K, x1 = 0.1004	–	0.429 ± 0.009
288.15 K, x1 = 0.1042	692.45 ± 0.25	–
288.15 K, x1 = 0.1998	–	0.421 ± 0.009
288.15 K, x1 = 0.2146	697.4 ± 0.25	–
288.15 K, x1 = 0.3008	–	0.413 ± 0.009
288.15 K, x1 = 0.3024	701.47 ± 0.26	–
288.15 K, x1 = 0.3982	706.28 ± 0.26	–
288.15 K, x1 = 0.4024	–	0.405 ± 0.008
288.15 K, x1 = 0.4996	711.72 ± 0.27	–
288.15 K, x1 = 0.5007	–	0.398 ± 0.008
288.15 K, x1 = 0.5875	716.86 ± 0.29	–
288.15 K, x1 = 0.5989	–	0.391 ± 0.008
288.15 K, x1 = 0.6981	–	0.385 ± 0.008
288.15 K, x1 = 0.6985	723.76 ± 0.3	–
288.15 K, x1 = 0.7887	–	0.38 ± 0.008
288.15 K, x1 = 0.794	730.17 ± 0.32	–
288.15 K, x1 = 0.889	737.04 ± 0.32	–
288.15 K, x1 = 0.898	–	0.375 ± 0.008
293.15 K, x1 = 0.1004	–	0.406 ± 0.009
293.15 K, x1 = 0.1042	688.15 ± 0.25	–
293.15 K, x1 = 0.1998	–	0.398 ± 0.008
293.15 K, x1 = 0.2146	693.02 ± 0.25	–
293.15 K, x1 = 0.3008	–	0.39 ± 0.008
293.15 K, x1 = 0.3024	697.02 ± 0.25	–
293.15 K, x1 = 0.3982	701.73 ± 0.26	–
293.15 K, x1 = 0.4024	–	0.383 ± 0.008
293.15 K, x1 = 0.4996	707.09 ± 0.27	–
293.15 K, x1 = 0.5007	–	0.376 ± 0.008
293.15 K, x1 = 0.5875	712.13 ± 0.29	–
293.15 K, x1 = 0.5989	–	0.369 ± 0.008
293.15 K, x1 = 0.6981	–	0.364 ± 0.008
293.15 K, x1 = 0.6985	718.92 ± 0.3	–
293.15 K, x1 = 0.7887	–	0.359 ± 0.008
293.15 K, x1 = 0.794	725.22 ± 0.31	–
293.15 K, x1 = 0.889	731.98 ± 0.32	–
298.15 K, x1 = 0.1004	–	0.384 ± 0.008
298.15 K, x1 = 0.1042	683.83 ± 0.25	–
298.15 K, x1 = 0.1998	–	0.377 ± 0.008
298.15 K, x1 = 0.2146	688.62 ± 0.25	–
298.15 K, x1 = 0.3008	–	0.37 ± 0.008
298.15 K, x1 = 0.3024	692.54 ± 0.25	–
298.15 K, x1 = 0.3982	697.16 ± 0.26	–
298.15 K, x1 = 0.4024	–	0.363 ± 0.008
298.15 K, x1 = 0.4996	702.42 ± 0.27	–
298.15 K, x1 = 0.5007	–	0.357 ± 0.008
298.15 K, x1 = 0.5875	707.37 ± 0.28	–
298.15 K, x1 = 0.6985	714.04 ± 0.29	–
298.15 K, x1 = 0.794	720.23 ± 0.31	–
298.15 K, x1 = 0.889	726.87 ± 0.32	–
303.15 K, x1 = 0.1004	–	0.365 ± 0.008
303.15 K, x1 = 0.1042	679.49 ± 0.25	–
303.15 K, x1 = 0.1998	–	0.358 ± 0.008
303.15 K, x1 = 0.2146	684.18 ± 0.25	–
303.15 K, x1 = 0.3008	–	0.351 ± 0.008
303.15 K, x1 = 0.3024	688.02 ± 0.25	–
303.15 K, x1 = 0.3982	692.55 ± 0.26	–
303.15 K, x1 = 0.4024	–	0.344 ± 0.008
303.15 K, x1 = 0.4996	697.72 ± 0.27	–
303.15 K, x1 = 0.5875	702.57 ± 0.28	–
303.15 K, x1 = 0.6985	709.11 ± 0.29	–
303.15 K, x1 = 0.794	715.19 ± 0.31	–
303.15 K, x1 = 0.889	721.72 ± 0.31	–
308.15 K, x1 = 0.1004	–	0.347 ± 0.008
308.15 K, x1 = 0.1042	675.12 ± 0.25	–
308.15 K, x1 = 0.1998	–	0.34 ± 0.008
308.15 K, x1 = 0.2146	679.71 ± 0.24	–
308.15 K, x1 = 0.3024	683.48 ± 0.25	–
308.15 K, x1 = 0.3982	687.91 ± 0.26	–
308.15 K, x1 = 0.4996	692.98 ± 0.27	–
308.15 K, x1 = 0.5875	697.73 ± 0.28	–
308.15 K, x1 = 0.6985	704.14 ± 0.29	–
308.15 K, x1 = 0.794	710.11 ± 0.3	–
313.15 K, x1 = 0.1004	–	0.33 ± 0.008
313.15 K, x1 = 0.1042	670.71 ± 0.25	–
313.15 K, x1 = 0.2146	675.19 ± 0.24	–
313.15 K, x1 = 0.3024	678.89 ± 0.25	–
313.15 K, x1 = 0.3982	683.23 ± 0.26	–
313.15 K, x1 = 0.4996	688.2 ± 0.26	–
313.15 K, x1 = 0.5875	692.85 ± 0.28	–
313.15 K, x1 = 0.6985	699.12 ± 0.28	–
318.15 K, x1 = 0.1042	666.28 ± 0.24	–
318.15 K, x1 = 0.2146	670.65 ± 0.24	–
318.15 K, x1 = 0.3024	674.26 ± 0.25	–
318.15 K, x1 = 0.3982	678.51 ± 0.25	–
318.15 K, x1 = 0.4996	683.38 ± 0.26	–
318.15 K, x1 = 0.5875	687.92 ± 0.27	–
323.15 K, x1 = 0.1042	661.8 ± 0.24	–
323.15 K, x1 = 0.2146	666.08 ± 0.24	–
323.15 K, x1 = 0.3024	669.6 ± 0.25	–
323.15 K, x1 = 0.3982	673.75 ± 0.25	–
323.15 K, x1 = 0.4996	678.5 ± 0.26	–
328.15 K, x1 = 0.1042	657.27 ± 0.24	–
328.15 K, x1 = 0.2146	661.46 ± 0.24	–
328.15 K, x1 = 0.3024	664.89 ± 0.24	–
328.15 K, x1 = 0.3982	668.93 ± 0.25	–
333.15 K, x1 = 0.1042	652.74 ± 0.24	–
333.15 K, x1 = 0.2146	656.77 ± 0.24	–
333.15 K, x1 = 0.3024	660.13 ± 0.24	–
338.16 K, x1 = 0.1042	648.13 ± 0.24	–
338.16 K, x1 = 0.2146	652.07 ± 0.24	–
343.16 K, x1 = 0.1042	643.27 ± 0.24	–
